Results: US11596639B2, “Substituted indole Mcl-1 inhibitors” (Vanderbilt University, priority 2016, dated 2023)
Where two headings read alike, the source gives them in different places.

Assays:
[1] = target: Mcl-1 (Homo sapiens (Human), UniProt Q07820); assay: Fluorescence polarization anisotropy (FPA) competition assay, FITC-Bak or FITC-Bim BH3 peptide; type: binding; settings: read-out: Ki for Inhibition of Mcl-1 by FPA assay
[2] = test system: H929 human cancer cell lines; assay: Cellular viability / proliferation (Cell TiterGlo, 72 h); type: cell-based
In short: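 Compounds were added as 2-fold serial dilutions from 50 μM (final DMSO <1%) to H929 cells seeded 1,000 per well in 10% FBS medium one day earlier.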

[3] = Homo sapiens, NCI-H929, 72 h, read-out: GI50 on cellular proliferation of H929 human cancer cell lines, H929 cells, 72 h, Cell TiterGlo, 10% FBS

Mcl-1, sequence (Q07820 172-327): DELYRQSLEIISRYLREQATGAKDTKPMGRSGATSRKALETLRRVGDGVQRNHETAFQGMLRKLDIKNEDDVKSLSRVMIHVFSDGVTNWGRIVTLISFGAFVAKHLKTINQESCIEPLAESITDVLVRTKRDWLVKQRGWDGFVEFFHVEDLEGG

**Q.** Which results are given for `Cc1cc(OCCCc2c3n(c4c(-c5c(C)nn(C)c5C)c(Cl)ccc24)[C@H](C)CN(c2cccc4cc(C(N)=O)n(Cc5ccccn5)c24)C3=O)cc(C)c1Cl` [Example 385, (R)-7-(7-Chloro-10-(3-(4-chloro-3,5-dimethylphenoxy)propyl)-4-methyl-1-oxo-6-(1,3,5-trimethyl-1H-pyrazol-4-yl)-3,4-dihydropyrazino[1,2-a]indol-2(1H)-yl)-1-(pyridin-2-ylmethyl)-1H-indole-2-carboxamide]?
**A.** Ki [1]: 0.0041 µM; GI50 [2, 3]: 0.51 µM

**Q.** Which results are given for `Cc1cc(OCCCc2c3n(c4c(-c5c(C)nn(C)c5C)c(Cl)ccc24)[C@H](C)CN(c2cc(C(=O)O)c4c(cnn4C)c2)C3=O)cc(C)c1Cl` [Example 98, (R)-5-(7-chloro-10-(3-(4-chloro-3,5-dimethylphenoxy)propyl)-4-methyl-1-oxo-6-(1,3,5-trimethyl-1H-pyrazol-4-yl)-3,4-dihydropyrazino[1,2-a]indol-2(1H)-yl)-1-methyl-1H-indazole-7-carboxylic acid]?
**A.** Ki [1]: < 0.001 µM; GI50 [2, 3]: 6.6 µM

**Q.** For `Cc1cc(OCCCc2c3n(c4c(-c5c(C)nn(C)c5C)c(Cl)ccc24)[C@H](C)CN(c2ccnc4c(C(=O)O)cccc24)C3=O)cc(C)c1Cl` [Example 253, (R)-4-(7-Chloro-10-(3-(4-chloro-3,5-dimethylphenoxy)propyl)-4-methyl-1-oxo-6-(1,3,5-trimethyl-1H-pyrazol-4-yl)-3,4-dihydropyrazino[1,2-a]indol-2(1H)-yl)quinoline-8-carboxylic acid], which Ki [1] is on record?
**A.** Its Ki is 0.0012 µM.

**Q.** What about the GI50 [2, 3] of the same compound?
**A.** The GI50 was 1.1 µM.

**Q.** For `Cc1cc(OCCCc2c3n(c4c(-c5c(C)nn(C)c5C)c(Cl)ccc24)[C@H](C)CN(c2cccc4cc(C(=O)O)n(Cc5nccs5)c24)C3=O)cc(C)c1Cl` [Example 298, 7-[(4R)-7-chloro-10-[3-(4-chloro-3,5-dimethyl-phenoxy)propyl]-4-methyl-1-oxo-6-(1,3,5-trimethylpyrazol-4-yl)-3,4-dihydropyrazino[1,2-a]indol-2-yl]-1-(thiazol-2-ylmethyl)indole-2-carboxylic acid], which Ki [1] is on record?
**A.** The Ki was less than 0.001 µM.

**Q.** And the GI50 [2, 3]?
**A.** The GI50 was 0.29 µM.

**Q.** For `Cc1cc(OCCCc2c3n(c4c(-c5c(C)nn(C)c5C)c(Cl)ccc24)[C@H](C)CN(c2cn(C)c4ccc(C(N)=O)cc24)C3=O)cc(C)c1Cl` [Example 221, 3-[(4R)-7-chloro-10-[3-(4-chloro-3,5-dimethyl-phenoxy)propyl]-4-methyl-1-oxo-6-(1,3,5-trimethylpyrazol-4-yl)-3,4-dihydropyrazino[1,2-a]indol-2-yl]-1-methyl-indole-5-carboxamide], which Ki [1] is on record?
**A.** The Ki was 0.0025 µM.

**Q.** And the GI50 [2, 3]?
**A.** The GI50 was 0.45 µM.

**Q.** `Cc1cc(OCCCc2c3n(c4c(-c5c(C)nn(C)c5C)c(Cl)ccc24)[C@H](C)CN(c2cn(C)c4ccc(-c5nnn[nH]5)cc24)C3=O)cc(C)c1Cl` [Example 235, (R)-7-Chloro-10-(3-(4-chloro-3,5-dimethylphenoxy)propyl)-4-methyl-2-(1-methyl-5-(1H-tetrazol-5-yl)-1H-indol-3-yl)-&(1,3,5-trimethyl-1H-pyrazol-4-yl)-3,4-dihydropyrazino[1,2-a]indol-1(2H)-one] was tested. Which Ki [1] did it give?
**A.** The Ki was less than 0.001 µM.

**Q.** What about the GI50 ([2]; H929 cells, 72 h, Cell TiterGlo, 10% FBS, read-out: GI50 on cellular proliferation of H929 human cancer cell lines) of the same compound?
**A.** Its GI50 is 0.24 µM.

**Q.** With `Cc1cc(OCCCc2c3n(c4c(-c5c(C)ncnc5C)c(Cl)ccc24)CCCN(c2cc(C(=O)O)c4ccn(C)c4c2)C3=O)cc(C)c1Cl` [Example 130, 6-[8-Chloro-11-[3-(4-chloro-3,5-dimethyl-phenoxy)propyl]-7-(4,6-dimethylpyrimidin-5-yl)-1-oxo-4,5-dihydro-3H-[1,4]diazepino[1,2-a]indol-2-yl]-1-methyl-indole-4-carboxylic acid] as the compound, how does the Ki [1] read?
**A.** Its Ki is less than 0.001 µM.

**Q.** What about the GI50 [2, 3] of the same compound?
**A.** The GI50 was 2.4 µM.

**Q.** What does the source list for `Cc1cc(OCCCc2c3n(c4c(-c5c(C)ncnc5C)c(Cl)ccc24)[C@H](C)CN(c2cccc4cc(C(=O)O)ccc24)C3=O)cc(C)c1Cl` [Example 218, 5-[(4R)-7-chloro-10-[3-(4-chloro-3,5-dimethyl-phenoxy)propyl]-6-(4,6-dimethylpyrimidin-5-yl)-4-methyl-1-oxo-3,4-dihydropyrazino[1,2-a]indol-2-yl]naphthalene-2-carboxylic acid]?
**A.** Ki [1]: < 0.001 µM; GI50 [2, 3]: < 0.2 µM

**Q.** With `Cc1cc(OCCCc2c3n(c4c(-c5c(C)nn(C)c5C)c(Cl)ccc24)[C@H](C)CN(c2cccc4c(C(=O)O)n(C)nc24)C3=O)cc(C)c1Cl` [Example 54, (R)-7-(7-chloro-10-(3-(4-chloro-3,5-dimethylphenoxy)propyl)-4-methyl-1-oxo-6-(1,3,5-trimethyl-1H-pyrazol-4-yl)-3,4-dihydropyrazino[1,2-a]indol-2(1H)-yl)-2-methyl-2H-indazole-3-carboxylic acid] as the compound, how does the Ki [1] read?
**A.** The Ki was less than 0.001 µM.

**Q.** What about the GI50 [2, 3] of the same compound?
**A.** The GI50 was 0.32 µM.

**Q.** For `Cc1cc(OCCCc2c3n(c4c(-c5c(C)nn(C)c5C)c(Cl)ccc24)[C@H](C)CN(c2cccc4cc(C(=O)O)n(CC5CCCO5)c24)C3=O)cc(C)c1Cl` (stereo partly drawn) [Example 326, 7-((R)-7-Chloro-10-(3-(4-chloro-3,5-dimethylphenoxy)propyl)-4-methyl-1-oxo-6-(1,3,5-trimethyl-1H-pyrazol-4-yl)-3,4-dihydropyrazino[1,2-a]indol-2(1H)-yl)-1-((tetrahydrofuran-2-yl)methyl)-1H-indole-2-carboxylic acid], which Ki [1] is on record?
**A.** The Ki was less than 0.001 µM.

**Q.** And the GI50 [2, 3]?
**A.** The GI50 was 0.59 µM.

**Q.** What does the source list for `Cc1cc(OCCCc2c3n(c4c(-c5c(C)nn(C)c5C)c(Cl)ccc24)[C@H](C)CN(c2cn(C)c4ccc(C(=O)N(C)C)cc24)C3=O)cc(C)c1Cl` [Example 289, 3-[(4R)-7-chloro-10-[3-(4-chloro-3,5-dimethyl-phenoxy)propyl]-4-methyl-1-oxo-6-(1,3,5-trimethylpyrazol-4-yl)-3,4-dihydropyrazino[1,2-a]indol-2-yl]-N,N,1-trimethyl-indole-5-carboxamide]?
**A.** Ki [1]: 0.015 µM; GI50 [2, 3]: 5.2 µM

**Q.** Which Ki [1] does the source give for `Cc1cc(OCCCc2c3n(c4c(-c5c(C)nn(C)c5C)c(Cl)ccc24)CCCN(c2cc(C(=O)O)c4cnn(C(C)C)c4c2)C3=O)cc(C)c1Cl` [Example 92, 6-[8-Chloro-11-[3-(4-chloro-3,5-dimethyl-phenoxy)propyl]-1-oxo-7-(1,3,5-trimethylpyrazol-4-yl)-4,5-dihydro-3H-[1,4]diazepino[1,2-a]indol-2-yl]-1-isopropyl-indazole-4-carboxylic acid] here?
**A.** Its Ki is less than 0.001 µM.

**Q.** What about the GI50 [2, 3] of the same compound?
**A.** The GI50 was 0.9 µM.

**Q.** `Cc1cc(OCCCc2c3n(c4c(-c5c(C)nn(C)c5C)c(Cl)ccc24)[C@H](C)CN(c2cccc4c2c(C(=O)O)cn4C)C3=O)cc(C)c1Cl` [Example 182, 4-[(4R)-7-chloro-10-[3-(4-chloro-3,5-dimethyl-phenoxy)propyl]-4-methyl-1-oxo-6-(1,3,5-trimethylpyrazol-4-yl)-3,4-dihydropyrazino[1,2-a]indol-2-yl]-1-methyl-indole-3-carboxylic acid] was tested. Which Ki [1] did it give?
**A.** Its Ki is less than 0.001 µM.

**Q.** And the GI50 [2, 3]?
**A.** The GI50 was 1.5 µM.

**Q.** `Cc1cc(OCCCc2c3n(c4c(-c5c(C)nn(C)c5C)c(Cl)ccc24)[C@H](C)CN(c2cccc4c(C(=O)O)cn(C)c24)C3=O)cc(C)c1Cl` [Example 69, (R)-7-(7-Chloro-10-(3-(4-chloro-3,5-dimethylphenoxy)propyl)-4-methyl-1-oxo-6-(1,3,5-trimethyl-1H-pyrazol-4-yl)-3,4-dihydropyrazino[1,2-a]indol-2(1H)-yl)-1-methyl-1H-indole-3-carboxylic acid] was tested. Which Ki [1] did it give?
**A.** Its Ki is less than 0.001 µM.

**Q.** What about the GI50 ([2]; read-out: GI50 on cellular proliferation of H929 human cancer cell lines, H929 cells, 72 h, Cell TiterGlo, 10% FBS) of the same compound?
**A.** Its GI50 is less than 0.2 µM.
